biological target: Phosphodiesterase 3 (Homo sapiens, UniProt Q14432+Q13370); experiment: Inhibition of cAMP PDE 3; type: protein assay

IC50	SMILES
330 nM	CC(C)Cc1nccc2nc3nc(O)sc3cc12
430 nM	Oc1nc2nc3ccnc(-c4ccccc4)c3cc2s1
83 nM	O=[N+]([O-])c1cc(-c2nccc3nc4nc(O)sc4cc23)ccc1O

Further lines, the compound ahead of its results:

SMILES	IC50
CCCc1nccc2nc3nc(O)sc3cc12	67 nM
CCc1nccc2nc3nc(O)sc3cc12	22 nM
Oc1ccc(-c2nccc3nc4nc(O)sc4cc23)cc1	240 nM
Cc1nccc2nc3nc(O)sc3cc12	62 nM

From ChEMBL document CHEMBL1128685, “Novel and potent adenosine 3',5'-cyclic phosphate phosphodiesterase III inhibitors: thiazolo[4,5-b][1,6]naphthyridin-2-ones” (J Med Chem, 1995)
